Where a SMILES comes first, the peptide text is derived from it.
Key:
[1] = target: T1, 3H-CCK-8-(SO3H) binding, bovine striatum homogenate (Bos taurus, UniProt P79266); test: In vitro receptor binding assay, bovine striatum; settings: 0.15 nM 3H-CCK-8-(SO3H), 30 min, 25° C.; read-out: Bovine Striatum IC50 (inhibition of specific 3H-CCK-8-(SO3H) binding)
T1 construct: tissue homogenate (striatum 0.26 mg protein in 2 ml final volume; pancreas 0.165 mg protein in 1 ml final volume); from tissue; host or cells: bovine striatum membrane homogenate
T1 sequence (P79266 1-454): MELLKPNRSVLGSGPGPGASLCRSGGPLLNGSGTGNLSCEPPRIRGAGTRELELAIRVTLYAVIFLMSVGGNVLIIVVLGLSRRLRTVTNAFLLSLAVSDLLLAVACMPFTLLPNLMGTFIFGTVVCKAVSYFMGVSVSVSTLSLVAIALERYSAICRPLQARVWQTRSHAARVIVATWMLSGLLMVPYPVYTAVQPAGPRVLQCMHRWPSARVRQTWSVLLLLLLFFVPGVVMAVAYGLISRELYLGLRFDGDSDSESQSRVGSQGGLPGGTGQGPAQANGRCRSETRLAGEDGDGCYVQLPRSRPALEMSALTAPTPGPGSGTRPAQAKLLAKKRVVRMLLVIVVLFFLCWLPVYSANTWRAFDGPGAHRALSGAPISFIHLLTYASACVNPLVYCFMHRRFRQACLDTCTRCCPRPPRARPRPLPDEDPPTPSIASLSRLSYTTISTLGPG
Experimental: (§1) The tissue was homogenized 2× for approx. 15 sec. at 0° C. using a Polytron homogenizer at a setting of 6. The tissue was isolated by centrifugation at 48,000×g for 10 min. at 0° C. […] Samples were incubated for 30 min. at 25° C. and the incubation terminated by pouring the mixture onto a pre-wet Whatman GF/B filter on a Sandbeck Vacuum Filtration Manifold. The incubation tubes were washed with 2×3 ml of ice-cold HEPES Buffer #2 and the wash filtered through the GF/B filter. The filter was air dried for 10 min. and then placed in a scintillation vial with 12 ml of Beckman HP/b Ready-Solv scintillation cocktail. The vials were shaken for 2-12 hours and then counted using a Beckman Model 7800 liquid scintillation spectrometer.

[2] = target: T2, 3H-CCK-8-(SO3H) binding, rat pancreas homogenate (Rattus norvegicus, UniProt P30551); test: In vitro receptor binding assay, rat pancreas; settings: 0.15 nM 3H-CCK-8-(SO3H), 30 min, 25° C.; read-out: Rat Pancreas IC50 (inhibition of specific 3H-CCK-8-(SO3H) binding)
T2 construct: tissue homogenate (striatum 0.26 mg protein in 2 ml final volume; pancreas 0.165 mg protein in 1 ml final volume); from tissue; host or cells: rat pancreas membrane homogenate
T2 sequence (P30551 1-444): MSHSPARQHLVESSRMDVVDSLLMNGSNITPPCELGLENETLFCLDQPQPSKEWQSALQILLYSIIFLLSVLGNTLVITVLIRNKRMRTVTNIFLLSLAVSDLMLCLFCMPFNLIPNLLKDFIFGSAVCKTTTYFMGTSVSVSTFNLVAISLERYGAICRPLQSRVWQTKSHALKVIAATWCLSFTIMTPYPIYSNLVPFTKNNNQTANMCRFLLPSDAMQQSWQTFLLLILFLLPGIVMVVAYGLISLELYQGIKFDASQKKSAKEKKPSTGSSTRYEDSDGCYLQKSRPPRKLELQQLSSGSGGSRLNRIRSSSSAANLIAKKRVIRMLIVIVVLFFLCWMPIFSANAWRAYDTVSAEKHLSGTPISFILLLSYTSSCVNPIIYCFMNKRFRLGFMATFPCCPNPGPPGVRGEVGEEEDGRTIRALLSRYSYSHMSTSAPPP
Experimental: as §1

[3] = test system: food intake of meal-trained male Sprague-Dawley (CD) rats; test: Two-meal feeding assay; format: in vivo, rat; settings: dose 32 microgm/kg i.p. 15 min before first meal; mean ± SEM
Experimental: Male Sprague-Dawley (CD) rats weighing 180-200 grams (Charles River Breeding Laboratories) were acclimated to a 12 h light/dark cycle (6 a.m. to 6 p.m.) in a room kept at 22° C. They were subsequently fasted for two days, weighed, placed in individual cages, and a four-day period of meal training was begun. During this time the rats were given ground laboratory chow (Purina Lab Chow) in jars for one hour from 9:00 a.m. until 10:00 a.m., the jars were removed from 10:00 a.m. to 12:00 p.m., and placed back in the cages from 12:00 until 1:00 p.m. Under this `1-2-1` meal feeding regime, most rats learn to eat approximately as much per day during the two hours they have access to food as rats which have food ad libitum over the entire 24-hour day. On the fourth day, the rats were weighed again, and any which lost more than five grams body weight were excluded from the test. The animals were then distributed into experimental (n=5 to 6) and control groups (n=6-12), but not matched for body weight.
Peptides of the invention were suspended either in saline, if soluble, or in 1% gum arabic, if insoluble, at concentrations of 32 to 320 μg/ml/kg body weight and were administered intraperitonerally 15 min before the first meal on day 5 of meal feeding. […] Food intake was expressed as a mean and standard error of the mean as a percent of control values for the various groups. […]

[4] = test system: food intake in lean and obese men; settings: infusions in lean and obese men; cited from earlier work
in vitro = settings: human, real gastrointestinal fluid or homogenate
Experimental: The degradation was monitored by analytical HPLC on a micro Bondapack (C18 column (0.4×30 cm) with a linear gradient of 10-40% of 0.01M NH4 Ac/CH3 CN in 40 min. with a flow rate of 2 ml/min and detection at 225 nm.

metabolised at 0.25 h, 0.5 mg/mL (in vitro) [%]	Compound	IC50 [1] [µM]	IC50 [2] [µM]	Food Intake 1st Meal [3]	Food Intake 2nd Meal [3]	Effect of infusion on food intake [4]	metabolised at 1 h, 0.5 mg/mL (in vitro) [%]
–	CSCC[C@@H]1NC(=O)[C@H](Cc2c[nH]c3ccccc23)NC(=O)CNC(=O)[C@@H](NC(=O)[C@H](Cc2ccc(OS(=O)(=O)O)cc2)NC(C)=O)CCCCNC(=O)C[C@@H](C(=O)N[C@@H](Cc2ccccc2)C(N)=O)NC1=O (HELM PEPTIDE1{[ac].[O=C([C@H](Cc1ccc(OS(=O)(=O)O)cc1)N[*:1])[*:2]].K.G.W.M.D.F.[am]}$PEPTIDE1,PEPTIDE1,3:R3-7:R3$$$V2.0)	> 1	0.045	–	–	–	–
–	CCCC[C@@H]1NC(=O)[C@H](Cc2c[nH]c3ccccc23)NC(=O)CNC(=O)[C@@H](NC(=O)[C@H](Cc2ccc(OS(=O)(=O)O)cc2)NC(C)=O)CCCCNC(=O)C[C@@H](C(=O)N(C)[C@@H](Cc2ccccc2)C(N)=O)NC1=O (HELM PEPTIDE1{[ac].[O=C([C@H](Cc1ccc(OS(=O)(=O)O)cc1)N[*:1])[*:2]].K.G.W.[Nle].D.[meF].[am]}$PEPTIDE1,PEPTIDE1,3:R3-7:R3$$$V2.0)	> 1	6.6	–	–	–	–
–	CSCC[C@@H]1NC(=O)[C@H](Cc2c[nH]c3ccccc23)NC(=O)CNC(=O)[C@@H](NC(=O)[C@H](Cc2ccc(OS(=O)(=O)O)cc2)NC(C)=O)CCCNC(=O)C[C@@H](C(=O)N(C)[C@@H](Cc2ccccc2)C(N)=O)NC1=O (HELM PEPTIDE1{[ac].[O=C([C@H](Cc1ccc(OS(=O)(=O)O)cc1)N[*:1])[*:2]].[Orn].G.W.M.D.[meF].[am]}$PEPTIDE1,PEPTIDE1,3:R3-7:R3$$$V2.0)	52	13	–	–	–	–
90	CSCC[C@H](NC(=O)[C@H](Cc1ccc(OS(=O)(=O)O)cc1)NC(=O)[C@@H](N)CC(=O)O)C(=O)NCC(=O)N[C@@H](Cc1c[nH]c2ccccc12)C(=O)N[C@@H](CCSC)C(=O)N[C@@H](CC(=O)O)C(=O)N[C@@H](Cc1ccccc1)C(N)=O [CCK-8, H-Asp-Tyr-(SO3 H)-Met-Gly-Trp-Met-Asp-Phe-NH2]	0.001 to 0.0046	0.001 to 0.0032	27 ± 17 % of Control	149 ± 6 % of Control	decrease food intake	100
–	CSCC[C@@H]1NC(=O)[C@H](Cc2c[nH]c3ccccc23)NC(=O)CNC(=O)[C@@H](NC(=O)[C@H](Cc2ccc(OS(=O)(=O)O)cc2)NC(C)=O)CCCCNC(=O)C[C@@H](C(=O)N(C)[C@@H](Cc2ccccc2)C(N)=O)NC1=O [Example 1] (HELM PEPTIDE1{[ac].[O=C([C@H](Cc1ccc(OS(=O)(=O)O)cc1)N[*:1])[*:2]].K.G.W.M.D.[meF].[am]}$PEPTIDE1,PEPTIDE1,3:R3-7:R3$$$V2.0)	3	1.5	–	–	–	1.4
–	CSCC[C@@H]1NC(=O)[C@H](Cc2ccc(OS(=O)(=O)O)cc2)NC(=O)CC[C@@H](C(=O)N[C@H](C(=O)N(C)[C@@H](Cc2ccccc2)C(N)=O)[C@@H](C)OS(=O)(=O)O)NC(=O)[C@H](Cc2c[nH]c3ccccc23)NC(=O)CNC1=O [Example 3] (HELM PEPTIDE1{[O=C([C@H](Cc1ccc(OS(=O)(=O)O)cc1)N[*:1])[*:2]].M.G.W.E.[C[C@@H](OS(=O)(=O)O)[C@H](N[*:1])C(=O)[*:2]].[meF].[am]}$PEPTIDE1,PEPTIDE1,1:R1-5:R3$$$V2.0)	> 10	> 10	–	–	–	–
